How the values were obtained:
[1] = 303.15 K, 100 kPa, Liquid; for viscosity: Capillary tube (Ostwald / Ubbelohde) method; for speed of sound: Frequency=2 MHz, Linear variable-path acoustic interferometer; for mass density: Pycnometric method
[2] = xn = mol fraction of the nth substance listed; settings: 303.15 K, 100 kPa, Liquid; for viscosity: Capillary tube (Ostwald / Ubbelohde) method; for speed of sound: Frequency=2 MHz, Linear variable-path acoustic interferometer; for mass density: Pycnometric method

CCCCC(CC)COP(=O)(O)OCC(CC)CCCC (centres undefined) [bis(2-ethylhexyl) hydrogen phosphate]
[1]
Settings	mass density [kg/m3]	speed of sound [m/s]	viscosity [mPa·s]
–	961.3	1293	19.29

CCCCC(CC)COP(=O)(O)OCC(CC)CCCC (centres undefined) [bis(2-ethylhexyl) hydrogen phosphate] + Clc1ccccc1
[2]
Settings	mass density [kg/m3]	speed of sound [m/s]	viscosity [mPa·s]
x1 = 0.0568	1075.2	1253.2	0.917
x1 = 0.1474	1051.9	1255.5	1.535
x1 = 0.2143	1038.4	1257.7	1.859
x1 = 0.3498	1017.9	1262.8	2.804
x1 = 0.4357	1007.6	1266.4	3.777
x1 = 0.4788	1002.9	1268.4	4.502
x1 = 0.5322	997.1	1270.8	5.526
x1 = 0.6285	987.8	1275.4	7.879
x1 = 0.7146	980.4	1279.5	10.49
x1 = 0.7704	975.8	1282.2	12.21
x1 = 0.8433	970.4	1285.7	14.56
x1 = 0.8789	968	1287.3	15.86
x1 = 0.9501	963.8	1290.8	17.84
x1 = 1	961.3	1293	19.29

Cc1ccccc1 [toluene] + CCCCC(CC)COP(=O)(O)OCC(CC)CCCC
[2], x2 = 0
Settings	mass density [kg/m3]	speed of sound [m/s]	viscosity [mPa·s]
–	856.2	1282.6	0.528

O=[N+]([O-])c1ccccc1 [nitrobenzene]
[1]
Settings	mass density [kg/m3]	speed of sound [m/s]	viscosity [mPa·s]
–	1193.6	1445.6	1.611

O=[N+]([O-])c1ccccc1 [nitrobenzene] + CCCCC(CC)COP(=O)(O)OCC(CC)CCCC
[2], x2 = 0
Settings	mass density [kg/m3]	speed of sound [m/s]	viscosity [mPa·s]
–	1193.6	1445.6	1.611
